Assay results from patent US20250288514A1, “SKIN-SOOTHING COMPOSITION” (Amorepacific Corporation, priority 2024, published 2025).

Key:
[1] = tested on: filaggrin protein; assay: Moisturizing factor evaluation: filaggrin protein expression in artificial skin treated with inflammation cocktail; assay type: cell-based; details: inflammation cocktail IFN-γ (20 ng/ml)+TNF-α (20 ng/ml), compositions at 50 ppm, FIG. 3
[2] = tested on: claudin-1 protein; assay: Skin cohesion evaluation: claudin-1 protein expression in artificial skin treated with inflammation cocktail; assay type: cell-based; details: inflammation cocktail IFN-γ (20 ng/ml)+TNF-α (20 ng/ml), compositions at 50 ppm, FIG. 2
[3] = tested on: PGE2 (Prostaglandin E2); assay: Skin redness evaluation: amount of PGE2 in artificial skin treated with inflammatory factor; assay type: cell-based; details: TNF-α+IFN-γ (20 ng/ml), FIG. 4
Description: PGE2 is a factor that induces vasodilation and causes skin redness, wherein the smaller amount of PGE2, the less vasodilation induction, thereby suppressing the skin redness, and the skin redness evaluation results are shown in FIG. 4.

[4] = Dilution of stock in medium (state of the composition); assay type: physicochemical; details: 50 ppm in medium, from stock in purified water or DMSO
Description: Because PEA was suspended at the 50 ppm, this composition was not used for an experiment.

[5] = tested on: mast cell degranulation; details: stated as known; cited from earlier work
[6] = Cell toxicity of the composition; details: 50 ppm
Method: A composition was prepared by adding 1 g of (−)-epigallocatechin gallate 5 (EGCG) to 100 g of purified water or dimethyl sulfoxide (DMSO) to prepare a stock and diluting the stock to 50 ppm.

Molecule	expression level of filaggrin protein [1]	expression level of claudin-1 protein [2]	also measured
CCCCCCCCCCCCCCCC(=O)NCCO [Comparative Example 4, palmitoylethanolamide]	not recovered from the decrease of the protein expression	not recovered from the decrease in the protein expression of the claudin-1 protein	–
Oc1cc(O)c2c(c1)O[C@H](c1ccc(O)c(O)c1)[C@H](O)C2 [Example 3, epicatechin]	recovered from the decrease of the protein expression	recovered from the decrease in the protein expression of the claudin-1 protein	amount of PGE2 [3]: the amount of PGE2 was suppressed
CCCCCCCCCCCCCCCC(=O)NCCO [PEA, palmitoylethanolamide]	–	–	state on dilution in medium [4]: suspended; effect of suppressing the mast cell degranulation [5]: no effect of suppressing the mast cell degranulation
(−)-epigallocatechin gallate [Comparative Example 7]	not recovered from the decrease of the protein expression	not recovered from the decrease in the protein expression of the claudin-1 protein	–
(−)-epigallocatechin gallate [EGCG]	–	–	cell toxicity [6]: cell toxicity
